Measured values published in US11771738B2 (Zoetis Services LLC, priority 2018, dated 2023).
Where two headings read alike, the source gives them in different places.

Assays:
Format in all cases: cell-based
[1] = system: third stage larvae of Haemonchus contortus; assay: Haemonchus contortus, Larvae Stage 3 (HcL3) In Vitro Assay; conditions: Haemonchus contortus, 96 h
[2] = system: microfilariae of Dirofilaria immitis; assay: Dirofilaria immitis, Microfilaria (DiMf) In Vitro Assay; conditions: Dirofilaria immitis, 72 h, read-out: DiMf MED, Minimum Effective Dose, D. immitis microfilariae motility, in vitro
[3] = system: D. immitis L4 larvae; assay: Dirofilaria immitis, L4 Stage (DiL4) In Vitro Assay; conditions: for minimal effective concentration: Dirofilaria immitis, 72 h, read-out: DiL4 MED, Minimum Effective Dose, D. immitis L4 larvae motility, in vitro; for DiMf/DiL4: larval stage selectivity, ratio of DiMf MED to DiL4 MED
[4] = read-out: HcL3 MED, Minimum Effective Dose, H. contortus third stage larvae, approximately 96 hours
[5] = read-out: HcL3 MED, Haemonchus contortus third stage larvae in vitro, class mark appended to the Ex # in Table 3

SMILES	minimal effective concentration [1, 4] [µM]	minimal effective concentration [2] [µM]	minimal effective concentration [3] [µM]	DiMf/DiL4 [3]	minimal effective concentration [1, 5] [µM]	minimal effective concentration ([1]; read-out: HcL3 MED, approximately 96 hours incubation, multiple-resistant field isolate) [µM]
COc1ncccc1C(C)(F)c1ccc(C[C@H]2OC(=O)[C@H](CC(C)C)N(C)C(=O)[C@@H](C)OC(=O)[C@H](CC(C)C)N(C)C(=O)[C@@H](Cc3ccc(C(C)(F)c4cccnc4OC)cc3)OC(=O)[C@H](CC(C)C)N(C)C(=O)[C@@H](C)OC(=O)[C@H](CC(C)C)N(C)C2=O)cc1 (stereo partly drawn) [Example 3-220, (3S,6R,9S,12R,15S,18R,21S,24R)-6,18-bis(4-(1-fluoro-1-(2-methoxypyridin-3-yl)ethyl)benzyl)-3,9,15,21-tetraisobutyl-4,10,12,16,22,24-hexamethyl-1,7,13,19-tetraoxa-4,10,16,22-tetraazacyclotetracosan-2,5,8,11,14,17,20,23-octaone]	> 100	0.005	0.0007	7.1		
Cc1ccncc1Cc1ccc(C[C@H]2OC(=O)[C@H](CC(C)C)N(C)C(=O)[C@@H](C)OC(=O)[C@H](CC(C)C)N(C)C(=O)[C@@H](Cc3ccc(Cc4cnccc4C)cc3)OC(=O)[C@H](CC(C)C)N(C)C(=O)[C@@H](C)OC(=O)[C@H](CC(C)C)N(C)C2=O)cc1 [Example 3-223, (3S,6R,9S,12R,15S,18R,21S,24R)-3,9,15,21-tetraisobutyl-4,6,10,16,18,22-hexamethyl-12,24-bis(4-((4-methylpyridin-3-yl)methyl)benzyl)-1,7,13,19-tetraoxa-4,10,16,22-tetraazacyclotetracosan-2,5,8,11,14,17,20,23-octaone]	5.7	0.005	0.0007	7.1		
COc1cccc(C(C)(F)c2ccc(C[C@H]3OC(=O)[C@H](CC(C)C)N(C)C(=O)[C@@H](C)OC(=O)[C@H](CC(C)C)N(C)C(=O)[C@@H](Cc4ccc(C(C)(F)c5cccc(OC)n5)cc4)OC(=O)[C@H](CC(C)C)N(C)C(=O)[C@@H](C)OC(=O)[C@H](CC(C)C)N(C)C3=O)cc2)n1 (stereo partly drawn) [Example 3-225, (3S,6R,9S,12R,15S,18R,21S,24R)-6,18-bis(4-(1-fluoro-1-(6-methoxypyridin-2-yl)ethyl)benzyl)-3,9,15,21-tetraisobutyl-4,10,12,16,22,24-hexamethyl-1,7,13,19-tetraoxa-4,10,16,22-tetraazacyclotetracosan-2,5,8,11,14,17,20,23-octaone]	> 100	0.3	0.0007	429		
CC(C)C[C@H]1C(=O)O[C@H](Cc2ccc(Cc3snnc3C(C)C)cc2)C(=O)N(C)[C@@H](CC(C)C)C(=O)O[C@H](C)C(=O)N(C)[C@@H](CC(C)C)C(=O)O[C@H](Cc2ccc(Cc3snnc3C(C)C)cc2)C(=O)N(C)[C@@H](CC(C)C)C(=O)O[C@H](C)C(=O)N1C [Example 3-228, (3S,6R,9S,12R,15S,18R,21S,24R)-3,9,15,21-tetraisobutyl-6,18-bis(4-((4-isopropyl-1,2,3-thiadiazol-5-yl)methyl)benzyl)-4,10,12,16,22,24-hexamethyl-1,7,13,19-tetraoxa-4,10,16,22-tetraazacyclotetracosan-2,5,8,11,14,17,20,23-octaone]	> 100	0.01	0.0005	20		
CC(C)C[C@H]1C(=O)O[C@H](Cc2ccc(Cc3cccnc3C(F)(F)F)cc2)C(=O)N(C)[C@@H](CC(C)C)C(=O)O[C@H](C)C(=O)N(C)[C@@H](CC(C)C)C(=O)O[C@H](Cc2ccc(Cc3cccnc3C(F)(F)F)cc2)C(=O)N(C)[C@@H](CC(C)C)C(=O)O[C@H](C)C(=O)N1C [Example 3-238, (3S,6R,9S,12R,15S,18R,21S,24R)-3,9,15,21-tetraisobutyl-4,6,10,16,18,22-hexamethyl-12,24-bis(4-((2-(trifluoromethyl)pyridin-3-yl)methyl)benzyl)-1,7,13,19-tetraoxa-4,10,16,22-tetraazacyclotetracosan-2,5,8,11,14,17,20,23-octaone]	> 5	0.002	0.0001	20		
Cc1ccc(Cc2ccc(C[C@H]3OC(=O)[C@H](CC(C)C)N(C)C(=O)[C@@H](C)OC(=O)[C@H](CC(C)C)N(C)C(=O)[C@@H](Cc4ccc(Cc5ccc(C)nc5C)cc4)OC(=O)[C@H](CC(C)C)N(C)C(=O)[C@@H](C)OC(=O)[C@H](CC(C)C)N(C)C3=O)cc2)c(C)n1 [Example 3-240, (3S,6R,9S,12R,15S,18R,21S,24R)-6,18-bis(4-((2,6-dimethylpyridin-3-yl)methyl)benzyl)-3,9,15,21-tetraisobutyl-4,10,12,16,22,24-hexamethyl-1,7,13,19-tetraoxa-4,10,16,22-tetraazacyclotetracosan-2,5,8,11,14,17,20,23-octaone]	5.7	0.02	0.001	20		
Cc1[nH]ncc1Cc1ccc(C[C@H]2OC(=O)[C@H](CC(C)C)N(C)C(=O)[C@@H](C)OC(=O)[C@H](CC(C)C)N(C)C(=O)[C@@H](Cc3ccc(Cc4cn[nH]c4C)cc3)OC(=O)[C@H](CC(C)C)N(C)C(=O)[C@@H](C)OC(=O)[C@H](CC(C)C)N(C)C2=O)cc1 [Example 3-243, (3S,6R,9S,12R,15S,18R,21S,24R)-3,9,15,21-tetraisobutyl-4,6,10,16,18,22-hexamethyl-12,24-bis(4-((5-methyl-1H-pyrazol-4-yl)methyl)benzyl)-1,7,13,19-tetraoxa-4,10,16,22-tetraazacyclotetracosan-2,5,8,11,14,17,20,23-octaone]	7.5	0.001	0.001	1		
COc1cnc(C(C)(F)c2ccc(C[C@H]3OC(=O)[C@H](CC(C)C)N(C)C(=O)[C@@H](C)OC(=O)[C@H](CC(C)C)N(C)C(=O)[C@@H](Cc4ccc(C(C)(F)c5cnc(OC)cn5)cc4)OC(=O)[C@H](CC(C)C)N(C)C(=O)[C@@H](C)OC(=O)[C@H](CC(C)C)N(C)C3=O)cc2)cn1 (stereo partly drawn) [Example 3-252, (3S,6R,9S,12R,15S,18R,21S,24R)-6,18-bis(4-(1-fluoro-1-(5-methoxypyrazin-2-yl)ethyl)benzyl)-3,9,15,21-tetraisobutyl-4,10,12,16,22,24-hexamethyl-1,7,13,19-tetraoxa-4,10,16,22-tetraazacyclotetracosan-2,5,8,11,14,17,20,23-octaone]	> 42	0.02	0.0007	28.6		
CCn1nccc1Cc1ccc(C[C@H]2OC(=O)[C@H](CC(C)C)N(C)C(=O)[C@@H](C)OC(=O)[C@H](CC(C)C)N(C)C(=O)[C@@H](Cc3ccc(Cc4ccnn4CC)cc3)OC(=O)[C@H](CC(C)C)N(C)C(=O)[C@@H](C)OC(=O)[C@H](CC(C)C)N(C)C2=O)cc1 [Example 3-253, (3S,6R,9S,12R,15S,18R,21S,24R)-6,18-bis(4-((1-ethyl-1H-pyrazol-5-yl)methyl)benzyl)-3,9,15,21-tetraisobutyl-4,10,12,16,22,24-hexamethyl-1,7,13,19-tetraoxa-4,10,16,22-tetraazacyclotetracosan-2,5,8,11,14,17,20,23-octaone]	1	0.0003	0.001	0.3	< 1	≤ 1
CC(C)C[C@H]1C(=O)O[C@H](Cc2ccc(Cc3cnsc3)cc2)C(=O)N(C)[C@@H](CC(C)C)C(=O)O[C@H](C)C(=O)N(C)[C@@H](CC(C)C)C(=O)O[C@H](Cc2ccc(Cc3cnsc3)cc2)C(=O)N(C)[C@@H](CC(C)C)C(=O)O[C@H](C)C(=O)N1C [Example 3-254, (3S,6R,9S,12R,15S,18R,21S,24R)-3,9,15,21-tetraisobutyl-6,18-bis(4-(isothiazol-4-ylmethyl)benzyl)-4,10,12,16,22,24-hexamethyl-1,7,13,19-tetraoxa-4,10,16,22-tetraazacyclotetracosan-2,5,8,11,14,17,20,23-octaone]	10	0.003	0.001	3		
COC(c1ccc(C[C@H]2OC(=O)[C@H](CC(C)C)N(C)C(=O)[C@@H](C)OC(=O)[C@H](CC(C)C)N(C)C(=O)[C@@H](Cc3ccc(C(OC)c4ccc(O)nc4)cc3)OC(=O)[C@H](CC(C)C)N(C)C(=O)[C@@H](C)OC(=O)[C@H](CC(C)C)N(C)C2=O)cc1)c1ccc(O)nc1 (stereo partly drawn) [Example 3-259, (3S,6R,9S,12R,15S,18R,21S,24R)-6,18-bis(4-((6-hydroxypyridin-3-yl)(methoxy)methyl)benzyl)-3,9,15,21-tetraisobutyl-4,10,12,16,22,24-hexamethyl-1,7,13,19-tetraoxa-4,10,16,22-tetraazacyclotetracosan-2,5,8,11,14,17,20,23-octaone]	3.3	0.01	0.0005	20	1 to 3.3	
COc1ncccc1C(C)c1ccc(C[C@H]2OC(=O)[C@H](CC(C)C)N(C)C(=O)[C@@H](C)OC(=O)[C@H](CC(C)C)N(C)C(=O)[C@@H](Cc3ccc(C(C)c4cccnc4OC)cc3)OC(=O)[C@H](CC(C)C)N(C)C(=O)[C@@H](C)OC(=O)[C@H](CC(C)C)N(C)C2=O)cc1 (stereo partly drawn) [Example 3-261, (3S,6R,9S,12R,15S,18R,21S,24R)-3,9,15,21-tetraisobutyl-6,18-bis(4-(1-(2-methoxypyridin-3-yl)ethyl)benzyl)-4,10,12,16,22,24-hexamethyl-1,7,13,19-tetraoxa-4,10,16,22-tetraazacyclotetracosan-2,5,8,11,14,17,20,23-octaone]	> 100	0.03	< 0.0001	>300		
